# Patent EP3524067B1, “SPRAY-DRIED MIXTURE OF HUMAN MILK OLIGOSACCHARIDES” (Chr. Hansen HMO GmbH, priority 2018, dated 2019)
# What was measured:
# [1] = Differential scanning calorimetry (DSC) of spray-dried human milk oligosaccharides; assay type: physicochemical; settings: spray-dried powder; for endothermal event, normalized energy / endothermal event, peak temperature: DSC heating scan (first heating scan where stated); for Tg, 1st heating scan / Tg, 2nd heating scan: glass transition temperature; for Tg, 1st heating scan: midpoint of endothermic shift, reheated to 100 °C at 10 K/min; for Tg, 2nd heating scan: second heating cycle, reheated to 150 °C
# Excerpt: Using differential scanning calorimetry (DSC) on a Mettler Toledo 821e (Mettler Toledo, Giessen, Germany) thermal events of spray-dried human milk oligosaccharides, namely 3-fucosyllactose, 6'-sialyllactose, 3'-sialyllactose, lacto-N-tetraose, and spray-dried mixtures of human milk oligosaccharides, a mixture (HMO-Mix I) of 2'-fucosyllactose/lacto-N-tetraose, and a mixture (HMO Mix II) of 2'-fucosyllactose, 3-fucosyllactose, lacto-N-tetraose, 6'-sialyllactose, 3'-sialyllactose, respectively, were determined.
# A Mettler Toledo 821e (Mettler Toledo, Giessen, Germany) was used to determine thermal events of the spray-dried products (glass transition temperature (Tg), further exo- and endothermic events).
# Approximately 25 mg of the spray-dried human milk oligosaccharides were analyzed in crimped Al-crucibles (Mettler Toledo, Giessen, Germany). The samples were cooled to 0 °C with 10 K/min and reheated to 100 °C with a scanning rate of 10 K/min. After cooling down the samples to 0 °C in a second heating cycle, the samples were reheated to 150 °C. The midpoint of the endothermic shift of the baseline during the heating scan was taken as glass transition temperature (Tg). Exothermic and endothermic peaks are reported by means of the peak temperature and the normalized energy of the event.
# [2] = Powder particle size by laser diffraction; assay type: physicochemical; design: Size, Mean: unit not given here; settings: dispersed in isooctane; mean ± standard deviation of 3 measurements
# Method: The powder particle size was assessed by laser diffraction. The system detects scattered and diffracted light by an array of concentrically arranged sensor elements. The software-algorithm is then approximating the particle counts by calculating the z-values of the light intensity values, which arrive at the different sensor elements. The analysis was executed using a SALD-7500 Aggregate Sizer (Shimadzu Corporation, Kyoto, Japan) quantitative laser diffraction system (qLD).
# A small amount (spatula tip) of each sample was dispersed in 2 ml isooctane and homogenized by ultrasonication for five minutes. The dispersion was transferred into a batch cell filled with isooctane and analyzed in manual mode.
# Data acquisition settings were as follows: Signal Averaging Count per Measurement: 128, Signal Accumulation Count: 3, and Interval: 2 seconds.
# Prior to measurement, the system was blanked with isooctane. Each sample dispersion was measured 3 times and the mean values and the standard deviation are reported. Data was evaluated using software WING SALD II version V3.1. Since the refractive index of the sample was unknown, the refractive index of sugar (disaccharide) particles (1.530) was used for determination of size distribution profiles. Size values for mean and median diameter are reported.
SMILES,"endothermal event, normalized energy [1] [J/g]","endothermal event, peak temperature [1]","endothermal relaxation peak after Tg ([1]; first heating scan, result in words)","Tg, 1st heating scan [1]","Tg, 2nd heating scan [1]","Size, Median [2] [µm]","Tg, 2nd heating scan ([1]; listed as lacto-N-tetraose)","Size, Mean [2]",endothermal events ([1]; result in words)
CC(=O)N[C@H]1[C@H]([C@H](O)[C@H](O)CO)O[C@@](OC[C@H]2O[C@@H](O[C@H]3[C@H](O)[C@@H](O)[C@H](O)O[C@@H]3CO)[C@H](O)[C@@H](O)[C@H]2O)(C(=O)O)C[C@@H]1O [6'-sialyllactose],-0.22,77 °C,detected,"47,6 °C","49,6 °C",141,–,–,–
"CC(=O)N[C@H]1[C@H](O[C@H]2[C@@H](O)[C@@H](CO)O[C@@H](O[C@H]3[C@H](O)[C@@H](O)C(O)O[C@@H]3CO)[C@@H]2O)O[C@H](CO)[C@@H](O)[C@@H]1O[C@@H]1O[C@H](CO)[C@H](O)[C@H](O)[C@H]1O (some centres unmarked) [Lacto-N-tetraose, lacto-N-tetraose]",-6.04,about 89 °C,–,"49,9 °C","79,4 °C",141,about 79 °C,117.3 ± 0.7,–
CC(=O)N[C@H]1[C@H]([C@H](O)[C@H](O)CO)O[C@@](O[C@H]2[C@@H](O)[C@@H](CO)O[C@@H](O[C@H]3[C@H](O)[C@@H](O)C(O)O[C@@H]3CO)[C@@H]2O)(C(=O)O)C[C@@H]1O (some centres unmarked) [3'-sialyllactose],–,–,–,"48,8 °C","54,3 °C",122 ± 16.7,–,–,No endothermal events were detected
